Earlier results on one compound are cited in patent US20260165989A1 (Société des Produits Nestlé S.A., priority 2024, published 2026).

For this data set the following is noted: counter ion (base) for salt screening.

Take `C[N+](C)(C)CC(=O)O` [Betaine]: the “pKa(s)*” value is recorded as 12.2.
